The target of assay [1] is T1, Kinesin-like protein KIF11 (Homo sapiens, UniProt P52732).
T1 sequence (P52732 whole entry): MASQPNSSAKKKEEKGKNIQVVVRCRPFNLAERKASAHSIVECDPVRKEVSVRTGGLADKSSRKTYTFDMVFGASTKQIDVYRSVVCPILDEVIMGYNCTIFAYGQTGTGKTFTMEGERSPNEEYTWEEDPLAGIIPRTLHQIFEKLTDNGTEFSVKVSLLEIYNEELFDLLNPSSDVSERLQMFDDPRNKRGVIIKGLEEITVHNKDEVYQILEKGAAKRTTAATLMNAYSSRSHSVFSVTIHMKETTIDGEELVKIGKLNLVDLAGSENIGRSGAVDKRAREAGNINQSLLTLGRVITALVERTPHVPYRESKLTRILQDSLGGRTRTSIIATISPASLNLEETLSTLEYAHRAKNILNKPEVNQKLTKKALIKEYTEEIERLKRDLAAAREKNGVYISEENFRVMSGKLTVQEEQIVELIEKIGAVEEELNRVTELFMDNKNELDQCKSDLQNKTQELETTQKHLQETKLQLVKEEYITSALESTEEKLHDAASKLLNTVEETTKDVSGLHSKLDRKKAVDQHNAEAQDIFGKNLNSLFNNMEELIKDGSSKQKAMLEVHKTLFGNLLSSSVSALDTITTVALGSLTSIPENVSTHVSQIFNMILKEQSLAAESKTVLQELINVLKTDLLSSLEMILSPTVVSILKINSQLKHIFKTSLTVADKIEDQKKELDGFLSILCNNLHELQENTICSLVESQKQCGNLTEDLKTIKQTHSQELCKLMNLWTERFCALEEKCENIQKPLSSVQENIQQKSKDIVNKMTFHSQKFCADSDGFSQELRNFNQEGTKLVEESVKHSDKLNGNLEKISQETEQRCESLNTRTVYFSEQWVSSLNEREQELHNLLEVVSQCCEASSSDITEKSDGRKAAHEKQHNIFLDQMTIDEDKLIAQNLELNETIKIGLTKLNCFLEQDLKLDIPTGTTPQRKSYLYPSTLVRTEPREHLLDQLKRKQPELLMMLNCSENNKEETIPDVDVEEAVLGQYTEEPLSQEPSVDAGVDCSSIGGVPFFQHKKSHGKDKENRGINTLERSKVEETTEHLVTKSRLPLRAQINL
The assay can be described thus: Inhibition of human mitotic kinesin Eg5 motor domain (1 to 368 residues) assessed as reduction in steady-state basal ATPase activity using ATP as substrate by pyruvate kinase/lactate dehydrogenase enzyme coupled assay.

In assay [2] the target is T1, Kinesin-like protein KIF11. The assay can be described thus: Inhibition of mitotic kinesin Eg5 (unknown origin).

SMILES strings stand for the structures.

As a reminder, the IC50 is the concentration needed to halve the response being measured. As for `CC(=O)Nc1ncnc(N2CCCC(NC(=O)c3cccc(C(F)(F)F)c3)C2)c1-c1ccccc1` (centres undefined), in assay [1], the IC50 stood at 4.86 µM.

With `COc1ccc(Nc2nc3cc(C(=O)O)ccc3n2Cc2ccccc2C(F)(F)F)cc1F`, half-maximal inhibition in assay [2] (IC50) was put at 0.459 µM. As to `CC(=O)Nc1ncnc(N2CCCC(NC(=O)COc3cccc(Cl)c3)C2)c1-c1ccccc1` (centres undefined), the 50% inhibitory concentration (IC50) in assay [1] turned out to be 9.03 µM.

For the compound `CC(=O)Nc1ncnc(N2CCCC(NC(=O)Cc3cccc(F)c3)C2)c1-c1ccccc1` (centres undefined), in assay [1], the half-maximal inhibitory concentration (IC50) is 11.4 µM.

The record behind these values is ChEMBL document CHEMBL4145550, “Synthesis of N-(1-(6-acetamido-5-phenylpyrimidin-4-yl) piperidin-3-yl) amide derivatives as potential inhibitors for mitotic kinesin spindle protein” (Eur J Med Chem, 2018).
